Test results from patent US20250195457A1, “PHARMACEUTICAL COMPOSITION FOR TREATMENT OF PARKINSON'S DISEASE” (Eisai R&D Management Co., Ltd., priority 2022, published 2025).

Experiments:
[1] = system: Parkinson's disease mouse model; conditions: pre-onset treatment; cited from earlier work
[2] = system: Parkinson's disease model cynomolgus monkeys (MPTP); experiment: Test Example 2: NDSs after combined administration of Compound (I) and levodopa in MPTP Parkinson's disease model monkeys; format: in vivo
Excerpt: (§1) The therapeutic effect of Compound (I) on Parkinson's disease was examined using Parkinson's disease model animals which are produced by administering MPTP (1-methyl-4-phenyl-1,2,3,6-tetrahydropyridine).
Parkinson's disease model cynomolgus monkeys were provided in the same way as in Test Example 1, and the therapeutic effect of the combined administration of Compound (I) and levodopa was examined.
By the end of the study, each animal had received all the five treatments. As a vehicle, an aqueous solution containing 0.43% (w/v) methyl cellulose 400, 10% (v/v) dimethyl sulfoxide (DMSO), and 4.5% (w/v) Cremophor (R) was used.
Before the administration, and 1 hr., 4 hrs., and 24 hrs. after the administration of the test substances, the NDSs of the monkeys were evaluated. The evaluation items and the evaluation methods are the same as in Test Example 1.

[3] = system: levodopa-induced dyskinesia model cynomolgus monkeys; experiment: Test Example 3: dyskinesia score in levodopa-induced dyskinesia model monkeys; format: in vivo; set-up: key to Dyskinesia score: dyskinesia score 0 = normal home cage activity to 4 = severe stereotypy; conditions: Istradefylline 60 mg/kg (G4)
Procedure: A levodopa/carbidopa mixture containing 80 mg/kg of levodopa and 20 mg/kg of carbidopa and having a solution volume of 5 mL/kg was orally administered to Parkinson's disease model cynomolgus monkeys at the age of 6 to 7 prepared in the same way as in Test Example 1 for 8 consecutive days to provide levodopa-induced dyskinesia model cynomolgus monkeys. The induction of dyskinesia was determined based on the “dyskinesia score” in accordance with the following behavior evaluation items in the following test on activity in home cages, and animals having dyskinesia scores of 1 or more on day 7 of the repeated administration of the levodopa/carbidopa mixture were used.
Home cage activities corresponding to dyskinesia scores • 0: Normal home cage activity (exploring or inactivity, able to drink water, plays with mirror or caging, climbing of the walls). • 1: Some interference with normal activity, however able to climb walls. • 2: Occasional exploration of cage, some stereotypy • 3: Little normal movement, lack of climbing of walls, clear stereotypy • 4: Lack of normal home cage activity, lack of normal exploratory behavior and movement, severe stereotypy
Seven levodopa-induced dyskinesia model cynomolgus monkeys were randomized into 4 groups of approximately equal mean and variance in terms of body weight. On subsequent cycles 2, 3, and 4, the animals were crossed over to receive the other treatment. A wash out period of one week or more was set between cycles.
One of the seven animals was excluded from the evaluation of cycles 3 and 4 because it was unable to get up due to dyskinesia on day 8 in cycle 3 of the repeated administration of the levodopa/carbidopa mixture.
By the end of the study, each animal had received all the four treatments. Each substance was administered 1 hr. after the administration on day 8 of the repeated administration of the levodopa/carbidopa mixture. As a vehicle, an aqueous solution containing 0.43% (w/v) methyl cellulose 400, 10% (v/v) dimethyl sulfoxide (DMSO), and 4.5% (w/v) Cremophor (R) were used.
(§2) Before the administration, and 1 hr., 4 hrs., and 24 hrs. after the administration of the test substances, the dyskinesia scores of the animals were evaluated. The behavior evaluation was performed in a blinded manner. The dyskinesia scores of the groups were compared using Steel's test. The p-values of less than 0.05 were considered to be statistically significant.

[4] = system: Parkinson's disease model cynomolgus monkeys (MPTP); experiment: Test Example 1: NDSs after administration of Compound (I) alone in MPTP Parkinson's disease model monkeys; format: in vivo; set-up: key to Subgroup 2: Specific motor functions score: specific motor functions subscore, range 0-21; conditions: Istradefylline 60 mg/kg (G5)
Procedure: as §1
MPTP was administered to male cynomolgus monkeys at the age of 4 to 5 to make Parkinson's disease model cynomolgus monkeys. MPTP was additionally administered to animals with neurologic deficit scores (Neurological deficit scores: NDSs, Schneider et al., “Development of levodopa-induced dyskinesias in parkinsonian monkeys may depend upon rate of symptom onset and/or duration of symptoms”, Brain Res., 2003, 990:38-44.) of less than 25.
Eight Parkinson's disease model cynomolgus monkeys were randomized into 5 groups of approximately equal mean and variance in terms of Parkinson behavior rating (Tremor score) and body weight. On subsequent cycle 2, cycle 3, cycle 4 and cycle 5, the animals were crossed over to receive the other treatments. A wash out period of one week or more was set between each cycle.
By the end of the study, each animal had received all the five treatments. Istradefylline is an adenosine A2A receptor antagonist approved as a drug for improving a wearing off phenomenon in Parkinson's disease being treated with a levodopa-containing preparation in the United States of America and Japan (Patent Literature 4). As a vehicle, an aqueous solution containing 0.43% (w/v) methyl cellulose 400, 10% (v/v) dimethyl sulfoxide (DMSO), and 4.5% (w/v) Cremophor (R) was used.
as §2, with “NDSs” for “dyskinesia scores”, “monkeys” for “animals”, “evaluated. The evaluation items are as follows.” for “evaluated.”
Subgroup 1: generalized behaviors (0-32) • 1.1a Appetite • 0: Normal • 1: Up to 30% food left • 2: Up to 65% food left • 3: Greater than 65% food left • 1.1b Response to offered food • 0: Responds to offered food • 1: Inconsistent response to offered food • 2: Little to no interest in offered food • 1.2 Overall activity • 0: Normal • 1: Mild hypokinesia; decrease in spontaneous movement • 2: Moderate hypokinesia; sparse spontaneous movement • 3: Severe hypokinesia; no spontaneous movement; tends to remain in one place • 1.3 Appearance • 0: Normal • 1: Mild but noticeable decrease in self-maintenance • 2: Moderate decrease in self-maintenance • 3: Severe lack of self-maintenance • 1.4 Posture • 0: Normal • 1: Minor flexing or stooping • 2: Moderate flexing or stooping; head and upper body almost parallel to floor of cage • 3: Severe flexing or stooping; head lowered to feet • 1.5 Balance • 0: Normal • 1: Mild loss on arising or movement • 2: Moderate loss on arising or movement; occasionally falls or supports self to keep from falling • 3: Severe loss of balance; falls • 1.6 Climbing • 0: Climbing observed with no delays in initiation/execution • 1: Mild deficit in ability to climb and support weight • 2: Moderate deficit in ability to climb and support weight; tends to ‘slide down’ • 3: Absence of any climbing behavior • 1.7 Tremor • 0: Absent • 1: Slight and intermittent • 2: Slight and persistent or moderate and intermittent • 3: Moderate/severe and persistent • 1.8 Freezing during movement • 0: Absent • 1: Occasional freezing for brief periods • 2: Occasional freezing for prolonged periods or frequent freezing for brief periods • 3: Prolonged and frequent freezing • 1.9 Facial expression • 0: Normal • 1: Mild hypomimia • 2: Moderate hypomimia • 3: Severe, masked fixed faces • 1.10 Defense reaction • 0: Normal • 1: Mild, noticeable reduction in reaction or slowed reaction, but can be provoked to react • 2: Moderate reduction in reaction; can produce facial display but not body reaction • 3: Little to no response
Subgroup 2: Specific Motor Functions (0-21)

[5] = Levodopa 5 mg/kg (G3), 1 hr. after administration
[6] = Levodopa 5 mg/kg (G3), 4 hrs. after administration
[7] = Levodopa 5 mg/kg (G3), 24 hrs. after administration
[8] = Levodopa 5 mg/kg (G3), Pre (before administration)
[9] = Levodopa 10 mg/kg (G2), 1 hr. after administration
[10] = Levodopa 10 mg/kg (G2), 4 hrs. after administration
[11] = Levodopa 10 mg/kg (G2), 24 hrs. after administration
[12] = Levodopa 10 mg/kg (G2), Pre (before administration)

Cc1ccsc1C(=CCCN1CCC[C@@H](C(=O)O)C1)c1sccc1C [tiagabine]
effect on nigrostriatal axis and motor dysfunction [1]: partially protects nigrostriatal axis to ameliorate motor dysfunction

N[C@@H](Cc1ccc(O)c(O)c1)C(=O)O [Levodopa, levodopa]
Subgroup 1: GENERALIZED BEHAVIORS score [2, 5]: 14.0 ± 0.7
Subgroup 2: Specific motor functions score [2, 5]: 11.0 ± 0.9
Total score of NDSs [2, 5]: 25.0 ± 1.6
Tremor score [2, 5]: 1.5 ± 0.2
Subgroup 1: GENERALIZED BEHAVIORS score [2, 6]: 15.0 ± 0.9
Subgroup 2: Specific motor functions score [2, 6]: 11.9 ± 0.8
Total score of NDSs [2, 6]: 26.9 ± 1.7
Tremor score [2, 6]: 1.8 ± 0.2
Subgroup 1: GENERALIZED BEHAVIORS score [2, 7]: 17.0 ± 0.7
Subgroup 2: Specific motor functions score [2, 7]: 13.6 ± 0.5
Total score of NDSs [2, 7]: 30.6 ± 1.1
Tremor score [2, 7]: 2.0 ± 0.0
Subgroup 1: GENERALIZED BEHAVIORS score [2, 8]: 17.4 ± 0.7
Subgroup 2: Specific motor functions score [2, 8]: 14.3 ± 0.5
Total score of NDSs [2, 8]: 31.6 ± 1.1
Tremor score [2, 8]: 2.0 ± 0.0
Subgroup 1: GENERALIZED BEHAVIORS score [2, 9]: 13.5 ± 0.9
Subgroup 2: Specific motor functions score [2, 9]: 10.9 ± 0.5
Total score of NDSs [2, 9]: 24.4 ± 1.2
Tremor score [2, 9]: 1.4 ± 0.2
Subgroup 1: GENERALIZED BEHAVIORS score [2, 10]: 15.0 ± 0.7
Subgroup 2: Specific motor functions score [2, 10]: 12.3 ± 0.5
Total score of NDSs [2, 10]: 27.3 ± 1.0
Tremor score [2, 10]: 1.4 ± 0.2
Subgroup 1: GENERALIZED BEHAVIORS score [2, 11]: 17.6 ± 0.7
Subgroup 2: Specific motor functions score [2, 11]: 14.0 ± 0.5
Total score of NDSs [2, 11]: 31.6 ± 1.0
Tremor score [2, 11]: 2.0 ± 0.0
Subgroup 1: GENERALIZED BEHAVIORS score [2, 12]: 17.8 ± 0.6
Subgroup 2: Specific motor functions score [2, 12]: 13.9 ± 0.4
Total score of NDSs [2, 12]: 31.6 ± 0.8
Tremor score [2, 12]: 2.0 ± 0.0

CCn1c(=O)c2c(nc(/C=C/c3ccc(OC)c(OC)c3)n2C)n(CC)c1=O [Istradefylline, reference compound]
Dyskinesia score ([3]; 1 hr. after administration): 1.8 ± 0.2
Dyskinesia score ([3]; 4 hrs. after administration): 1.8 ± 0.2
Dyskinesia score ([3]; 24 hrs. after administration): 1.8 ± 0.2
Dyskinesia score ([3]; Pre (before administration)): 1.7 ± 0.2
Subgroup 1: GENERALIZED BEHAVIORS score ([4]; 1 hr. after administration): 16.1 ± 0.9
Subgroup 2: Specific motor functions score ([4]; 1 hr. after administration): 12.3 ± 0.8
Total score of NDSs ([4]; 1 hr. after administration): 28.4 ± 1.6
Tremor score ([4]; 1 hr. after administration): 1.8 ± 0.2
Subgroup 1: GENERALIZED BEHAVIORS score ([4]; 4 hrs. after administration): 14.5 ± 0.6
Subgroup 2: Specific motor functions score ([4]; 4 hrs. after administration): 10.9 ± 0.5
Total score of NDSs ([4]; 4 hrs. after administration): 25.4 ± 1.0
Tremor score ([4]; 4 hrs. after administration): 1.6 ± 0.2
Subgroup 1: GENERALIZED BEHAVIORS score ([4]; 24 hrs. after administration): 15.9 ± 0.9
Subgroup 2: Specific motor functions score ([4]; 24 hrs. after administration): 12.1 ± 0.5
Total score of NDSs ([4]; 24 hrs. after administration): 28.0 ± 1.2
Tremor score ([4]; 24 hrs. after administration): 1.6 ± 0.2
Subgroup 1: GENERALIZED BEHAVIORS score ([4]; Pre (before administration)): 17.4 ± 0.9
Subgroup 2: Specific motor functions score ([4]; Pre (before administration)): 13.5 ± 0.4
Total score of NDSs ([4]; Pre (before administration)): 30.9 ± 1.3
Tremor score ([4]; Pre (before administration)): 2.1 ± 0.1
